pIC50: −log10 of the molar value.
How the values were obtained:
[1] = system: coagulation factor X; set-up: method as in Choi et al. (2015); conditions: ref Choi et al. (2015); cited from earlier work
[2] = target: T1, rhGPVI (Homo sapiens, UniProt Q9HCN6); experiment: Solid phase binding assay (rhGPVI binding to immobilized collagen); conditions: rhGPVI 30 nM; collagen 5 μg/mL coated; read-out: IC50, inhibition of binding of rhGPVI to collagen
T1 construct: rhGPVI was expressed and purified according to the method reported in the literature; made in house
T1 sequence (Q9HCN6 21-203 limits assumed): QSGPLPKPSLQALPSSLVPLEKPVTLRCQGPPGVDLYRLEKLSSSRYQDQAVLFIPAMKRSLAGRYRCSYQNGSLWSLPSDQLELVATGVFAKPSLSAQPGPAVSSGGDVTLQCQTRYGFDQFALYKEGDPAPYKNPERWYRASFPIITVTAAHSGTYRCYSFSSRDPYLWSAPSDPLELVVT
Experimental: rhGPVI was expressed and purified according to the method reported in the literature ([Horii et al., 2006]). rhGPVI was cross-linked with 10 μg/mL of cross-linking antibody His Tag Horseradish Peroxidase-conjugated Antibody (Cat. MAB050H; R&D Systems, Minneapolis, MN, United States). Solid phase assays were performed based on previously described procedures ([Billiald et al., 2023]). Collagen (5 μg/mL prepared in PBS) was used to coat 96-well plates overnight at 4°C. Non-specific sites were closed by Superblock (Cat. 37580; Thermo Fisher Scientific, Waltham, MA, United States). […] 1-StepTM Ultra TMB-ELISA (Cat. 34022; Thermo Fisher Scientific, Waltham, MA, United States) was developed, and the reaction was stopped with a 2 M sulphuric acid solution. Absorbance values were read at 450 nm. At least three washes were performed with PBS between each of the above steps. Each spot was measured three times.

[3] = system: human washed platelets; experiment: Platelet superoxide anion and H2O2 release (DHE, Amplex Red); assay type: cell-based; conditions: convulxin 5 ng/mL; luteolin 25 μM
Experimental: A ROS probe via a fluorescent enzyme marker was added. O2 ^− and H2O2 were measured using 2 μM Amplex Red (Cat No. ST010; Beyotime Institute of Biotechnology, Shanghai, China) or 2 μM Dihydroethidium (DHE, Cat No. S0063; Beyotime Institute of Biotechnology, Shanghai, China). O2 ^− and H2O2 were analyzed using a Fluoroskan Ascent fluorometer (Thermo Fisher, Waltham, Massachusetts, United States).

[4] = system: pulmonary thrombosis; experiment: Collagen-epinephrine-induced acute pulmonary embolism model and plasma oxidative markers; assay type: in vivo, C57BL/6 mice; conditions: luteolin 35 μM/kg
Experimental: The acute pulmonary embolism model in mice was similar to the previously reported literature with slight modifications ([Pan et al., 2021]). […] after a retro-orbital sinus injection of collagen (100 μg/kg)-epinephrine (300 μg/kg), the mice were anesthetized by pentobarbital (45 mg/kg, i.p.). Whole blood obtained from the eyes was anticoagulated with EDTA·2Na. Whole blood was centrifuged at 3,000 rpm for 10 min to get plasma. Measurement of MDA and SOD in plasma followed the manufacturer’s protocols. Mice were sacrificed by cervical dislocation. The lung tissue was taken and fixed in 4% paraformaldehyde overnight. Lung and sternum tissues were fixed in 4% paraformaldehyde, embedded in paraffin, and sectioned into 5-μm sections. After dewaxing and washing, the slices were incubated overnight at 4°C for immunostaining with anti-mouse CD41 antibody (Cat No. GTX113758, GeneTex Inc., Irvine, CA, United States) 0.63 μg/mL or with anti-mouse CD42b antibody (Cat No. 12860-1-AP; Proteintech Group Inc., Chicago, IL, United States) 1 μg/mL or an equivalent concentration of polyclonal non-immune IgG (Cat No. GTX213110-01; GeneTex) as control. The sections were washed three times and incubated for 50 min at room temperature with secondary antibodies. The nuclei were counterstained using hematoxylin. The tissues were observed using 3,3′-Diaminobenzidine tetrahydrochloride.

[5] = system: integrin αIIbβ3; experiment: PAC-1 expression (integrin αIIbβ3 activation) by flow cytometry; assay type: cell-based, human; conditions: collagen- and convulxin-induced
Experimental: Platelet membrane protein expression experiments were performed as previously reported, with slight modifications ([Babur et al., 2020]). WPs were added with 10 μM indomethacin to prevent platelet aggregation. After incubation, the WPs were activated by adding 1 mM calcium chloride and agonists to platelets at 37°C. After 30 min, 10 μL of WPs was taken, and the reaction was terminated by adding 90 μL Tyrode’s buffer and 10 mM EDTA. PerCP-coupled anti-CD61 antibody (1:50; Cat No. 336410; Biolegend, San Diego, CA, United States), Alexa Fluor® 647 labeled PAC-1 (1:50; Cat No. 362806; BioLegend), and FITC-coupled anti-CD62p antibody (1:50; Cat No. 555523; BD Biosciences, San Diego, CA, United States) were incubated with platelets for 30 min at 37°C in the dark. The platelet surface fluorescence intensity was analyzed using a FacsCanto II flow cytometer (BD Biosciences, San Diego, CA, United States) to analyze the expression of platelet surface membrane proteins. Cell membrane protein expression data were analyzed using FlowJo software V10.

[6] = system: human washed platelets; experiment: MDA, SOD and GPx activity in platelet lysate supernatant; assay type: cell-based; conditions: convulxin- and collagen-induced
Experimental: MDA, SOD, GPx, and NADPH oxidase activity were measured as previously described ([Krotz et al., 2002]; [Paul et al., 2019]; [Pan et al., 2021]). After incubation and activation, the reaction was stopped by adding 10 mM EGTA. The platelets were pelleted by centrifugation at 20,000 × g for 10 min at 4°C and resuspended in Tyrode’s buffer with 0.1% phosphatase and protease inhibitors (Cat No. 04906837001, Roche Applied Science, Penzberg, Germany; Cat No. P-8340, Sigma, St. Louis, MO, United States). The platelets were disrupted by passing them 10 times through a 29-gauge needle, followed by centrifugation at 2000 × g for 10 min at 4°C to separate the supernatant and precipitate. The detection of MDA, SOD, and GPx in the supernatant was performed according to the kit’s instructions for SOD (Cat No. BC0170, Solarbio Life Science, Beijing, China), MDA (Cat No. S0131S, Beyotime Institute of Biotechnology, Shanghai, China) and GPx (Cat No. S0056, Beyotime Institute of Biotechnology, Shanghai, China). In order to determine NADPH oxidase (NOX) activity, platelet lysate (12.5 μg) was incubated with 10 µM lucigenin and 0.5 mM NADPH at 37°C in the dark. The absorbance values were detected at 450 nm using a spectrophotometer Multiskan FC (ThermoFisher Scientific Inc., Waltham, MA, United States). Protein content was determined by the Bradford method.

SMILES: O=c1cc(-c2ccc(O)c(O)c2)oc2cc(O)cc(O)c12 [Luteolin]
- coagulation factor X activity [1]: effectively inhibits
- pIC50 [2]: 5.26
- platelet hydrogen peroxide release [3]: inhibited
- platelet superoxide anion release [3]: inhibited
- area and size of thrombus formation in lungs ([4]; 30 min before collagen-epinephrine): significantly attenuated
- MDA levels in plasma ([4]; mice with pulmonary embolism): significantly decreased
- SOD activity in plasma ([4]; mice with pulmonary embolism): increased
- PAC-1 expression (integrin αIIbβ3 inside-out activation) [5]: dose-dependently inhibited
- GPx activity [6]: promoted
- MDA activity [6]: inhibited
- SOD activity [6]: promoted
